Measurements published in patent publication US20070128217A1 (priority 2003, published 2007).

Tests used:
[1] = system: antibodies in sera from SARS patients (sera 1a, 1b, 2, 6, 37, 62, London, SARS-yellow, SARS-green); assay type: binding, human; set-up: Binding of serum 6 to linear peptides of protein X1 of SARS-CoV Urbani / Binding of serum 37 to linear peptides of protein X1 of SARS-CoV Urbani / Binding of serum 6 to looped/cyclic peptide (PEPSCAN-ELISA) / Binding of serum 37 to looped/cyclic peptide (PEPSCAN-ELISA) / Binding of serum 37 to looped/cyclic peptides of protein X1 of SARS-CoV Urbani / Binding of serum 6 to linear peptides of protein X2 / Binding of serum 37 to linear peptides of protein X2 / Binding of serum 37 to looped/cyclic peptides of protein X2 of SARS-CoV Urbani / Binding of serum 6 to linear peptides of protein M of SARS-CoV Urbani / Binding of serum 37 to linear peptides of protein M of SARS-CoV Urbani / Binding of serum 6 to looped/cyclic peptides of protein M of SARS-CoV Urbani / Binding of serum 37 to looped/cyclic peptides of protein M of SARS-CoV Urbani / Binding of serum 6 to linear peptides of protein X3 of SARS-CoV Urbani / Binding of serum 37 to linear peptides of protein X3 of SARS-CoV Urbani / Binding of serum 37 to looped/cyclic peptides of protein X3 of SARS-CoV Urbani / Binding of serum 6 to linear peptides of protein X4 of SARS-CoV Urbani / Binding of serum 37 to linear peptides of protein X4 of SARS-CoV Urbani / Binding of serum 37 to looped/cyclic peptides of protein X4 of SARS-CoV Urbani / Binding of serum 6 to linear peptides of protein X5 of SARS-CoV Urbani / Binding of serum 37 to linear peptides of protein X5 of SARS-CoV Urbani / Binding of serum 37 to looped/cyclic peptides of protein X5 of SARS-CoV Urbani / Binding of serum 6 to linear peptides of protein N of SARS-CoV Urbani / Binding of serum 37 to linear peptides of protein N of SARS-CoV Urbani / Binding of serum 6 to linear peptide (PEPSCAN-ELISA) / Binding of serum 1a to looped/cyclic peptides of protein N of SARS-CoV Urbani / Binding of serum 1b to looped/cyclic peptides of protein N of SARS-CoV Urbani / Binding of serum 2 to looped/cyclic peptides of protein N of SARS-CoV Urbani / Binding of serum 6 to looped/cyclic peptides of protein N of SARS-CoV Urbani / Binding of serum 37 to looped/cyclic peptides of protein N of SARS-CoV Urbani / Binding of serum 62 to looped/cyclic peptides of protein N of SARS-CoV Urbani / Binding of serum London to looped/cyclic peptides of protein N of SARS-CoV Urbani / Binding of serum SARS-green to looped/cyclic peptides of protein N of SARS-CoV Urbani: unit not given here
[2] = system: recombinant human anti-SARS-CoV antibody 03-018; assay type: binding; set-up: Binding of antibody 03-018 to linear peptides of the N protein of SARS-CoV Urbani / Binding of antibody 03-018 to looped/cyclic peptides of the N protein of SARS-CoV Urbani: unit not given here
[3] = system: control sera (pooled serum of ten healthy LUMC hospital workers; commercial negative donor pooled serum from the Dutch bloodbank); assay type: binding, human; set-up: Binding of Control serum LUMC to linear peptides / Binding of Control serum Blood-bank to linear peptides / Binding of Control serum LUMC to looped peptides / Binding of Control Serum Blood-Bank to Looped peptides / Binding of Control serum LUMC to linear peptides of the protein M of SARS-CoV Urbani / Binding of Control serum Blood-bank to linear peptides of the protein M of SARS-CoV Urbani / Binding of Control serum LUMC to looped peptides of the protein M of SARS-CoV Urbani / Binding of Control Serum Blood-Bank to Looped peptides of the protein M of SARS-CoV Urbani: unit not given here
[4] = system: rabbit serum obtained by immunizing a rabbit with the SARS-CoV strain Frankfurt 1; assay type: binding; set-up: Binding of a rabbit serum to linear peptides / Binding of a rabbit serum to looped peptides / Rabbit serum linear peptides / Rabbit serum looped peptides / Binding of a rabbit serum to linear peptides of protein N of SARS-CoV Urbani (Rabbit serum linear peptides) / Binding of a rabbit serum to looped/cyclic peptides of protein N of SARS-CoV Urbani (Rabbit serum looped peptides): unit not given here

Sequence: RGGDGKMKELSPRWY
- Binding of serum 1a to linear peptides of protein N of SARS-CoV Urbani [1]: 0.2
- Binding of serum 1a to looped/cyclic peptides of protein N of SARS-CoV Urbani [1]: 0.3
- Binding of serum 1b to linear peptides of protein N of SARS-CoV Urbani [1]: 0.1
- Binding of serum 1b to looped/cyclic peptides of protein N of SARS-CoV Urbani [1]: 0.2
- Binding of serum 2 to linear peptides of protein N of SARS-CoV Urbani [1]: 0.2
- Binding of serum 2 to looped/cyclic peptides of protein N of SARS-CoV Urbani [1]: 0.4
- Binding of serum 6 to linear peptides of protein N of SARS-CoV Urbani [1]: 0.2
- Binding of serum 6 to looped/cyclic peptides of protein N of SARS-CoV Urbani [1]: 0.3
- Binding of serum 37 to linear peptides of protein N of SARS-CoV Urbani [1]: 0.7
- Binding of serum 37 to looped/cyclic peptides of protein N of SARS-CoV Urbani [1]: 0.5
- Binding of serum 62 to linear peptides of protein N of SARS-CoV Urbani [1]: 0.6
- Binding of serum 62 to looped/cyclic peptides of protein N of SARS-CoV Urbani [1]: 0.4
- Binding of serum London to linear peptides of protein N of SARS-CoV Urbani [1]: 0.5
- Binding of serum London to looped/cyclic peptides of protein N of SARS-CoV Urbani [1]: 0.4
- Binding of serum SARS-green to linear peptides of protein N of SARS-CoV Urbani [1]: 0.3
- Binding of serum SARS-green to looped/cyclic peptides of protein N of SARS-CoV Urbani [1]: 0.3
- Binding of serum SARS-yellow to linear peptides of protein N of SARS-CoV Urbani [1]: 0.6
- Binding of serum SARS-yellow to looped/cyclic peptides of protein N of SARS-CoV Urbani [1]: 0.4
- Binding of antibody 03-018 to linear peptides of the N protein of SARS-CoV Urbani [2]: 0.1
- Binding of antibody 03-018 to looped/cyclic peptides of the N protein of SARS-CoV Urbani [2]: 0.2
- Binding of Control Serum Blood-Bank to Looped peptides [3]: 0.6
- Binding of Control serum Blood-bank to linear peptides [3]: 0.6
- Binding of Control serum LUMC to linear peptides [3]: 0.6
- Binding of Control serum LUMC to looped peptides [3]: 0.6
- Binding of a rabbit serum to linear peptides of protein N of SARS-CoV Urbani (Rabbit serum linear peptides) [4]: 0.1
- Binding of a rabbit serum to looped/cyclic peptides of protein N of SARS-CoV Urbani (Rabbit serum looped peptides) [4]: 0.4

Sequence: GDGKMKELSPRWYFY
- Binding of serum 1a to linear peptides of protein N of SARS-CoV Urbani [1]: 0.2
- Binding of serum 1a to looped/cyclic peptides of protein N of SARS-CoV Urbani [1]: 0.4
- Binding of serum 1b to linear peptides of protein N of SARS-CoV Urbani [1]: 0.1
- Binding of serum 1b to looped/cyclic peptides of protein N of SARS-CoV Urbani [1]: 0.3
- Binding of serum 2 to linear peptides of protein N of SARS-CoV Urbani [1]: 0.2
- Binding of serum 2 to looped/cyclic peptides of protein N of SARS-CoV Urbani [1]: 0.6
- Binding of serum 6 to linear peptides of protein N of SARS-CoV Urbani [1]: 0.1
- Binding of serum 6 to looped/cyclic peptides of protein N of SARS-CoV Urbani [1]: 0.3
- Binding of serum 37 to linear peptides of protein N of SARS-CoV Urbani [1]: 0.5
- Binding of serum 37 to looped/cyclic peptides of protein N of SARS-CoV Urbani [1]: 0.7
- Binding of serum 62 to linear peptides of protein N of SARS-CoV Urbani [1]: 0.6
- Binding of serum 62 to looped/cyclic peptides of protein N of SARS-CoV Urbani [1]: 0.6
- Binding of serum London to linear peptides of protein N of SARS-CoV Urbani [1]: 0.4
- Binding of serum London to looped/cyclic peptides of protein N of SARS-CoV Urbani [1]: 0.5
- Binding of serum SARS-green to linear peptides of protein N of SARS-CoV Urbani [1]: 0.3
- Binding of serum SARS-green to looped/cyclic peptides of protein N of SARS-CoV Urbani [1]: 0.5
- Binding of serum SARS-yellow to linear peptides of protein N of SARS-CoV Urbani [1]: 0.6
- Binding of serum SARS-yellow to looped/cyclic peptides of protein N of SARS-CoV Urbani [1]: 0.7
- Binding of antibody 03-018 to linear peptides of the N protein of SARS-CoV Urbani [2]: 0.1
- Binding of antibody 03-018 to looped/cyclic peptides of the N protein of SARS-CoV Urbani [2]: 0.2
- Binding of Control Serum Blood-Bank to Looped peptides [3]: 0.7
- Binding of Control serum Blood-bank to linear peptides [3]: 0.6
- Binding of Control serum LUMC to linear peptides [3]: 0.6
- Binding of Control serum LUMC to looped peptides [3]: 0.8
- Binding of a rabbit serum to linear peptides of protein N of SARS-CoV Urbani (Rabbit serum linear peptides) [4]: 0.2
- Binding of a rabbit serum to looped/cyclic peptides of protein N of SARS-CoV Urbani (Rabbit serum looped peptides) [4]: 0.6

Sequence: RLNQLESKVSGKGQQ
- Binding of serum 1a to linear peptide (PEPSCAN-ELISA) [1]: 0.3
- Binding of serum 1a to looped/cyclic peptides of protein N of SARS-CoV Urbani [1]: 0.4
- Binding of serum 1b to linear peptide (PEPSCAN-ELISA) [1]: 0.2
- Binding of serum 1b to looped/cyclic peptides of protein N of SARS-CoV Urbani [1]: 0.3
- Binding of serum 2 to linear peptide (PEPSCAN-ELISA) [1]: 0.3
- Binding of serum 2 to looped/cyclic peptides of protein N of SARS-CoV Urbani [1]: 0.5
- Binding of serum 6 to linear peptide (PEPSCAN-ELISA) [1]: 0.2
- Binding of serum 6 to looped/cyclic peptides of protein N of SARS-CoV Urbani [1]: 0.4
- Binding of serum 37 to linear peptide (PEPSCAN-ELISA) [1]: 0.7
- Binding of serum 37 to looped/cyclic peptides of protein N of SARS-CoV Urbani [1]: 0.6
- Binding of serum 62 to linear peptide (PEPSCAN-ELISA) [1]: 0.9
- Binding of serum 62 to looped/cyclic peptides of protein N of SARS-CoV Urbani [1]: 0.7
- Binding of serum London to linear peptide (PEPSCAN-ELISA) [1]: 0.6
- Binding of serum London to looped/cyclic peptides of protein N of SARS-CoV Urbani [1]: 0.4
- Binding of serum SARS-green to linear peptide (PEPSCAN-ELISA) [1]: 0.4
- Binding of serum SARS-green to looped/cyclic peptides of protein N of SARS-CoV Urbani [1]: 0.4
- Binding of serum SARS-yellow to linear peptide (PEPSCAN-ELISA) [1]: 0.7
- Binding of serum SARS-yellow to looped/cyclic peptides of protein N of SARS-CoV Urbani [1]: 0.8
- Binding of antibody 03-018 to linear peptides of the N protein of SARS-CoV Urbani [2]: 0.1
- Binding of antibody 03-018 to looped/cyclic peptides of the N protein of SARS-CoV Urbani [2]: 0.2
- Binding of Control Serum Blood-Bank to Looped peptides [3]: 0.6
- Binding of Control serum Blood-bank to linear peptides [3]: 0.8
- Binding of Control serum LUMC to linear peptides [3]: 0.7
- Binding of Control serum LUMC to looped peptides [3]: 0.7
- Binding of a rabbit serum to linear peptides of protein N of SARS-CoV Urbani (Rabbit serum linear peptides) [4]: 0.2
- Binding of a rabbit serum to looped/cyclic peptides of protein N of SARS-CoV Urbani (Rabbit serum looped peptides) [4]: 0.6

Sequence: ATKQYNVTQAFGRRG
- Binding of serum 1a to linear peptide (PEPSCAN-ELISA) [1]: 0.3
- Binding of serum 1a to looped/cyclic peptides of protein N of SARS-CoV Urbani [1]: 0.4
- Binding of serum 1b to linear peptide (PEPSCAN-ELISA) [1]: 0.2
- Binding of serum 1b to looped/cyclic peptides of protein N of SARS-CoV Urbani [1]: 0.3
- Binding of serum 2 to linear peptide (PEPSCAN-ELISA) [1]: 0.2
- Binding of serum 2 to looped/cyclic peptides of protein N of SARS-CoV Urbani [1]: 0.5
- Binding of serum 6 to linear peptide (PEPSCAN-ELISA) [1]: 0.2
- Binding of serum 6 to looped/cyclic peptides of protein N of SARS-CoV Urbani [1]: 0.5
- Binding of serum 37 to linear peptide (PEPSCAN-ELISA) [1]: 0.7
- Binding of serum 37 to looped/cyclic peptides of protein N of SARS-CoV Urbani [1]: 0.7
- Binding of serum 62 to linear peptide (PEPSCAN-ELISA) [1]: 0.6
- Binding of serum 62 to looped/cyclic peptides of protein N of SARS-CoV Urbani [1]: 0.7
- Binding of serum London to linear peptide (PEPSCAN-ELISA) [1]: 0.5
- Binding of serum London to looped/cyclic peptides of protein N of SARS-CoV Urbani [1]: 1.2
- Binding of serum SARS-green to linear peptide (PEPSCAN-ELISA) [1]: 0.3
- Binding of serum SARS-green to looped/cyclic peptides of protein N of SARS-CoV Urbani [1]: 0.2
- Binding of serum SARS-yellow to linear peptide (PEPSCAN-ELISA) [1]: 0.8
- Binding of serum SARS-yellow to looped/cyclic peptides of protein N of SARS-CoV Urbani [1]: 0.8
- Binding of antibody 03-018 to linear peptides of the N protein of SARS-CoV Urbani [2]: 0.1
- Binding of antibody 03-018 to looped/cyclic peptides of the N protein of SARS-CoV Urbani [2]: 0.3
- Binding of Control Serum Blood-Bank to Looped peptides [3]: 0.8
- Binding of Control serum Blood-bank to linear peptides [3]: 0.9
- Binding of Control serum LUMC to linear peptides [3]: 0.8
- Binding of Control serum LUMC to looped peptides [3]: 0.8
- Recognition of the peptide by the rabbit serum [4]: recognized
